Tested on: proton-gated cation channels in cultured mouse cortical neurons
Assay: Whole cell patch clamp of proton-gated currents in cultured mouse cortical neurons
Assay type: cell-based
Method: The following experiments were performed in voltage-or current clamp using conventional whole cell patch clamp methods [Hamill O P, Marty A, Neher E, Sakmann B and Sigworth F J: Improved patch-clamp techniques for high-resolution current recording from cells and cell-free membrane patches; Pflügers Arch. 1981 39 85-100]. The following salt solutions were used (where nothing else stated, the chemicals are available from Sigma): NaCl (140 mM), KCl (4 mM), CaCl2 (2 mM), MgCl2 (1 mM), Sucrose (30 mM; Available from Fluka Chemie, Buchs, Switzerland), HEPES (10 mM, pH 6-7.4). Solutions with pH<6 were buffered with MES (10 mM) in stead of HEPES. Solutions with no added Ca^2+ contained 3 mM MgCl2. Solutions with no added Na^+ contained 140 mM N-methyl-D-glucamine. For voltage clamp experiments, the extracellular solutions were added Tetrodotoxin (0.0003 mM; Available from Alomone Labs, Jerusalem, Israel) and Bicuculline Methiodide (0.005 mM; Available from RBI, MA, USA).
Intracellular solution for voltage clamp experiments: CsCl (120 mM), CsF (20 mM), MgCl2 (2 mM), EGTA (10 mM), HEPES (10 mM; pH=7.2). […]
For voltage clamp experiments, the cells were held at a holding voltage of −60 mV and at the start of each experiment the current was continuously measured for at least 30 sec. to ensure a stable leak current. […]

N=C(N)NC(=O)c1nc(Cl)c(N)nc1N [Amiloride, N-amidino-3,5-diamino-6-chloropyrazine-2-carboxamide]
Effect on proton-gated currents (100 μM Amiloride, saline at pH 6, voltage clamp −60 mV): inhibited
IC50 (cultured mouse cortical neuron, voltage clamp −60 mV, saline at pH 6, Hill equation fit, read-out: IC50, inhibition of proton-gated currents): 6.2 µM

— patent US7288653B2, “Inhibitors of proton-gated cation channels and their use in the treatment of ischaemic disorders” (PainCeptor Pharma Corporation, priority 1999, dated 2007)
